Results published in EPA's ToxValDB 9.5.
Several values for one entry are separate records, joined by “and”; a condition that tells them apart may be missing. Equal entries are not always repeated. Values belong to the compound of their own block, whether it stands above or below them.

Test system: Rattus norvegicus
[1] = short-term, duration: 4 weeks, inhalation, F, Wistar, Adrenal: Adrenal Cortex, Minimal Diffuse Hypertrophy + Blood: Calcium (CA), Blood + Blood: Chloride (CL), Blood + Blood: Inorganic …
[2] = short-term, duration: 4 weeks, inhalation, F, Wistar, Blood: Albumin/Globulin (A/G) Ratio + Blood: Globulin (G), Blood + Blood: Glucose (GLU), Blood + Blood: Potassium (K), Blood + Kidney: Urea…
[3] = short-term, duration: 4 weeks, inhalation, M, Wistar, Adrenal: Adrenal Cortex, Minimal Diffuse Hypertrophy + Blood: Calcium (CA), Blood + Blood: Total Protein (TP), Blood + Liver: Aspartate …
[4] = short-term, duration: 4 weeks, inhalation, M, Wistar, Blood: Chloride (CL), Blood + Blood: Glucose (GLU), Blood + Blood: Hematocrit (HCT) + Blood: Hemoglobin (HGB) + Blood: Red Blood Cell (RBC…
[5] = short-term, duration: 28 days, oral, gavage, F, Sprague-Dawley, Blood: Hematocrit (HCT) + Blood: Hemoglobin (HGB) + Blood: Red Blood Cell (RBC) + Blood: White Blood Cell (WBC) + Kidney: Total Protein (TP…
[6] = short-term, duration: 28 days, oral, gavage, F, Sprague-Dawley, Blood: Lymphocyte + Blood: Mean Corpuscular Volume (MCV) + Blood: Monocytes + Central Nervous System: Spontaneous Locomotion + Intestine: …
[7] = short-term, duration: 28 days, oral, gavage, F, Sprague-Dawley, Blood: Prothrombin Time (PT) + Renal: Albumin (A), Urine
[8] = short-term, duration: 28 days, oral, gavage, M, Sprague-Dawley, Blood: Hematocrit (HCT) + Blood: Hemoglobin (HGB) + Blood: White Blood Cell (WBC) + Central Nervous System: Spontaneous Locomotion + Hair/…
[9] = short-term, duration: 28 days, oral, gavage, M, Sprague-Dawley, Blood: Mean Cell Hemoglobin (MCH) + Blood: Mean Corpuscular Hemoglobin Concentration (MCHC) + Blood: Mean Corpuscular Volume (MCV) + Blood: …
[10] = short-term, duration: 28 days, oral, gavage, M, Sprague-Dawley, Hair/Fur: Alopecia + Lung: Respiration Rate
[11] = short-term, duration: 28 days, oral, gavage, M, Sprague-Dawley, Liver: Liver Weight, Relative
[12] = developmental, duration: 14 days, oral, gavage, M/F, Hsd. Han: WIST, generation: F1, F1: Developmental: Bone: Skeletal Variations + F1: Developmental: Placenta: Placenta Weight, Absolute + F1: Developmental: Placenta: …
[13] = developmental, duration: 14 days, oral, gavage, M/F, Wistar Han, generation: F1, F1: Placenta: Placenta Weight, Absolute + F1: Whole Body: Body Weight, Fetal + F1: Whole Body: Fetal Skeletal Variations
[14] = reproduction developmental, duration: 14 days, oral, gavage, F, Hsd. Han: WIST, generation: P0, P0: Developmental: Uterus: Implantation + P0: Developmental: Uterus: Post-Implantation Loss + P0: Developmental: Uterus: Pre-Implantation …
[15] = reproduction developmental, duration: 14 days, oral, gavage, F, Wistar Han, generation: P0, P0: Kidney: Necropsy, Kidney Observation + P0: Small Intestine: Necropsy, Small Intestine Observation + P0: Stomach: Necropsy, Stomach …
[16] = short-term, duration: 28 days, oral, gavage, F, Sprague-Dawley, Adrenal: Adrenal Gland Weight, Absolute + Adrenal: Adrenal Gland Weight, Relative
[17] = short-term, duration: 28 days, oral, gavage, M/F, Sprague-Dawley, Liver: Liver Histopathology
[18] = short-term, duration: 28 days, oral, gavage, M, Sprague-Dawley, Adrenal: Adrenal Gland Weight, Absolute + Adrenal: Adrenal Gland Weight, Relative

Compound: FC(F)(I)C(F)(F)C(F)(F)C(F)(F)C(F)(F)C(F)(F)I [1,6-Diiodoperfluorohexane]
LOAEL [1]: 45.1 mg/m3 | NOAEL [1]: 14.4 mg/m3 | NOAEL (short-term, duration: 4 weeks, inhalation, F, Wistar, Adrenal: Adrenal Gland Weight, Relative + Basophils + Blood: Activated Partial Thromboplastin Time (APTT) + Blood: Mean Corpuscular …): 45.1 mg/m3 | LOAEL [2]: 14.4 mg/m3 | NOAEL [2]: 4.48 mg/m3 and 4.49 mg/m3 | LOAEL (short-term, duration: 4 weeks, inhalation, F, Wistar, Blood: Cholesterol (CHOL), Total, Blood + Blood: Hematocrit (HCT) + Blood: Hemoglobin (HGB) + Blood: Red Blood Cell (RBC) + Brain: Brain …): 4.48 mg/m3 and 4.49 mg/m3 | LOAEL [3]: 45.1 mg/m3 | NOAEL [3]: 14.4 mg/m3 | LOAEL (short-term, duration: 4 weeks, inhalation, M, Wistar, Adrenal: Adrenal Gland Weight, Relative + Blood: Globulin (G), Blood + Blood: Inorganic Phosphorous (PHOS), Blood + Blood: Reticulocytes + …): 4.48 mg/m3 and 4.49 mg/m3 | NOAEL (short-term, duration: 4 weeks, inhalation, M, Wistar, Basophils + Blood: Activated Partial Thromboplastin Time (APTT) + Blood: Albumin/Globulin (A/G) Ratio + Blood: Mean Corpuscular Hemoglobin (…): 45.1 mg/m3 | LOAEL [4]: 14.4 mg/m3 | NOAEL [4]: 4.48 mg/m3 and 4.49 mg/m3 | NOAEL (short-term, duration: 28 days, oral, gavage, F, Sprague-Dawley, Adrenal: Adrenal Gland Histopathology + Adrenal: Adrenal Gland Weight, Relative + Blood: Globulin (G) + Blood: Phosphorous (inorganic) (PHOS…): 20 mg/kg-day | LOAEL (short-term, duration: 28 days, oral, gavage, F, Sprague-Dawley, Blood: Activated Partial Thromboplastin Time (APTT) + Blood: Albumin/Globulin (A/G) Ratio + Blood: Mean Cell Hemoglobin (MCH) + Blood: Mean …): 1 mg/kg-day | LOAEL [5]: 3 mg/kg-day | NOAEL [5]: 1 mg/kg-day | LOAEL [6]: 10 mg/kg-day | NOAEL [6]: 3 mg/kg-day | LOAEL [7]: 20 mg/kg-day | NOAEL [7]: 10 mg/kg-day | NOAEL (short-term, duration: 28 days, oral, gavage, M, Sprague-Dawley, Adrenal: Adrenal Gland Histopathology + Blood: Globulin (G) + Blood: Lymphocyte + Blood: Monocytes + Blood: Platelet Count (PLT) + Blood: …): 20 mg/kg-day | LOAEL (short-term, duration: 28 days, oral, gavage, M, Sprague-Dawley, Adrenal: Adrenal Gland Weight, Relative + Blood: Activated Partial Thromboplastin Time (APTT) + Blood: Albumin/Globulin (A/G) Ratio + Brain…): 1 mg/kg-day | LOAEL [8]: 3 mg/kg-day | NOAEL [8]: 1 mg/kg-day | LOAEL [9]: 10 mg/kg-day | NOAEL [9]: 3 mg/kg-day | LOAEL [10]: 20 mg/kg-day | NOAEL [10]: 10 mg/kg-day

Compound: FC(F)C(F)(F)C(F)(F)C(F)(F)C(F)(F)C(F)(F)F [1H-Perfluorohexane]
NOAEL (developmental, duration: 20 days, parental, M/F, Wistar, generation: F1, F1: Thyroid: Thyroxine (T4) + F1: Trunk: Anogenital Distance + F1: Whole Body: Body Weight, Fetal + F1: Whole Body: Clinical Observations + …): 1000 mg/kg-day | NOAEL (reproduction developmental, duration: 20 days, parental, M, Wistar, generation: F1, F1: Trunk: Areola/Nipple Retention): 1000 mg/kg-day | NOAEL (reproduction developmental, duration: 29 days, oral, gavage, M, Wistar, generation: P0, P0: Epididymis: Epididymis Weight, Absolute + P0: Prostate: Prostate Weight, Absolute + P0: Seminal Vesicle: Seminal Vesicles Weight (w/o …): 1000 mg/kg-day | NOAEL (reproduction developmental, duration: 29 days, oral, gavage, M, Wistar, generation: P0, P0: Peripheral Nervous System: Functional Observational Battery Tests + P0: Thyroid: Thyroid Gland Weight, Absolute + P0: Thyroid: Thyroxine…): 1000 mg/kg-day | NOAEL (reproduction developmental, duration: 64 days, oral, gavage, F, Wistar, generation: P0, P0: Heart: Heart Gross Pathology + P0: Heart: Heart Histopathology + P0: Kidney: Kidney Gross Pathology + P0: Kidney: Kidney Histopathology…): 1000 mg/kg-day | NOAEL (reproduction developmental, duration: 64 days, oral, gavage, F, Wistar, generation: P0, P0: Testis: Ovary Histopathology + P0: Uterus: Estrous Cyclicity + P0: Uterus: Implantation + P0: Whole Body: Conception Index + P0: Whole …): 1000 mg/kg-day | NOAEL (short-term, duration: 28 days, oral, gavage, F, Sprague-Dawley, Adrenal: Adrenal Gland Histopathology + Adrenal: Adrenal Gland Weight, Relative + Blood: Hematology, Unspecified + Brain: Brain Weight, …): 1000 mg/kg-day | NOAEL (short-term, duration: 28 days, oral, gavage, M, Sprague-Dawley, Adrenal: Adrenal Gland Histopathology + Adrenal: Adrenal Gland Weight + Blood: Hematology, Unspecified + Brain: Brain Weight, Relative + …): 1000 mg/kg-day | LOAEL [11]: 1000 mg/kg-day | NOAEL [11]: 200 mg/kg-day

NEL (developmental, duration: 14 days, oral, gavage, M/F, Wistar Han, generation: F1, F1: Placenta: Placenta Weight, Relative + F1: Uterus: Fetuses, Dead + F1: Uterus: Fetuses, Live + F1: Whole Body: Fetal External …): 1000 mg/kg-day | NEL (reproduction developmental, duration: 14 days, oral, gavage, F, Wistar Han, generation: P0, P0: Ovary: Corpora Lutea + P0: Uterus: Implantation + P0: Uterus: Post-Implantation Loss + P0: Uterus: Pre-Implantation Loss + P0: Whole …): 1000 mg/kg-day | NEL (short-term, duration: 28 days, oral, gavage, F, Crl:CD(SD), Adrenal: Adrenal Gland Weight, Absolute + Adrenal: Adrenal Gland Weight, Absolute, Recovery + Adrenal: Adrenal Gland Weight, Relative + …): 25 mg/kg-day | NEL (short-term, duration: 28 days, oral, gavage, F, Crl:CD(SD), Liver: Liver Weight, Absolute + Liver: Liver Weight, Relative + Teeth: Decreased Iron Pigment, Ameloblasts (28 d)): 5 mg/kg-day | LEL (short-term, duration: 28 days, oral, gavage, F, Crl:CD(SD), Liver: Liver Weight, Absolute + Liver: Liver Weight, Relative + Teeth: Decreased Iron Pigment, Ameloblasts (28 d) + Teeth: Teeth, Mottled (…): 25 mg/kg-day | NEL (short-term, duration: 28 days, oral, gavage, M, Crl:CD(SD), Adrenal: Adrenal Gland Weight, Absolute + Adrenal: Adrenal Gland Weight, Absolute, Recovery + Adrenal: Adrenal Gland Weight, Relative + …): 25 mg/kg-day | NEL (short-term, duration: 28 days, oral, gavage, M, Crl:CD(SD), Kidney: Kidney Weight, Relative + Teeth: Decreased Iron Pigment, Ameloblasts (28 d)): 5 mg/kg-day | LEL (short-term, duration: 28 days, oral, gavage, M, Crl:CD(SD), Kidney: Kidney Weight, Relative + Teeth: Decreased Iron Pigment, Ameloblasts (28 d) + Teeth: Teeth, Mottled (42 d)): 25 mg/kg-day
Compound: C=C(C)C(=O)OCCC(F)(F)C(F)(F)C(F)(F)C(F)(F)C(F)(F)C(F)(F)F [2-(Perfluorohexyl)ethyl methacrylate]
LOAEL [12]: 1000 mg/kg-day | NOAEL [12]: 320 mg/kg-day | LEL [13]: 1000 mg/kg-day | NEL [13]: 320 mg/kg-day | LOAEL [14]: 1000 mg/kg-day | NOAEL [14]: 320 mg/kg-day | NOAEL (reproduction developmental, duration: 14 days, oral, gavage, F, Hsd. Han: WIST, generation: P0, P0: Reproductive: Ovary: Corpora Lutea): 1000 mg/kg-day | LEL [15]: 1000 mg/kg-day | NEL [15]: 320 mg/kg-day

Compound: CCOC(F)(C(F)(F)C(F)(F)C(F)(F)F)C(F)(C(F)(F)F)C(F)(F)F (stereo not drawn) [3-Ethoxyperfluoro(2-methylhexane)]
NOAEL (developmental, duration: 26 days, parental, M/F, Sprague-Dawley, generation: F1, F1: Whole Body: Clinical Observations + F1: Whole Body: Litter Size + F1: Whole Body: Necropsy Appeared Normal + F1: Whole Body: Pup Body …): 1000 mg/kg-day | NOAEL (reproduction developmental, duration: 2 weeks, oral, gavage, F, Sprague-Dawley, generation: P0, P0: Ovary: Ovary, Non-Neoplastic Lesions + P0: Uterus: Estrous Cycle + P0: Uterus: Implantation + P0: Whole Body: Clinical Observations + P0…): 1000 mg/kg-day | NOAEL (reproduction developmental, duration: 2 weeks, oral, gavage, M, Sprague-Dawley, generation: P0, P0: Epididymis: Epididymis Weight, Absolute + P0: Epididymis: Epididymis Weight, Relative + P0: Epididymis: Epididymis, Non-Neoplastic …): 1000 mg/kg-day | LOAEL [16]: 1000 mg/kg-day | NOAEL [16]: 200 mg/kg-day | NOAEL (short-term, duration: 28 days, oral, gavage, F, Sprague-Dawley, Ovary: Ovary Weight, Absolute + Ovary: Ovary Weight, Relative + Spleen: Spleen Weight, Absolute): 1000 mg/kg-day | LOAEL (short-term, duration: 28 days, oral, gavage, F, Sprague-Dawley, Spleen: Spleen Weight, Relative): 40 mg/kg-day | NOAEL (short-term, duration: 28 days, oral, gavage, M/F, Sprague-Dawley, Blood: Clinical Chemistry, Unspecified + Kidney: Urinalysis, Unspecified + Whole Body: Body Weight Change + Whole Body: Clinical …): 1000 mg/kg-day | LOAEL [17]: 1000 mg/kg-day | NOAEL [17]: 200 mg/kg-day | LOAEL [18]: 1000 mg/kg-day | NOAEL [18]: 200 mg/kg-day | LOAEL (short-term, duration: 28 days, oral, gavage, M, Sprague-Dawley, Spleen: Spleen Weight, Absolute + Spleen: Spleen Weight, Relative): 40 mg/kg-day
